The record followed here is US20100190747A1, “Fused ring compound and use thereof” (priority 2009, published 2010).

SMILES strings stand for the structures.

T1 sequence (Q920R3 whole entry): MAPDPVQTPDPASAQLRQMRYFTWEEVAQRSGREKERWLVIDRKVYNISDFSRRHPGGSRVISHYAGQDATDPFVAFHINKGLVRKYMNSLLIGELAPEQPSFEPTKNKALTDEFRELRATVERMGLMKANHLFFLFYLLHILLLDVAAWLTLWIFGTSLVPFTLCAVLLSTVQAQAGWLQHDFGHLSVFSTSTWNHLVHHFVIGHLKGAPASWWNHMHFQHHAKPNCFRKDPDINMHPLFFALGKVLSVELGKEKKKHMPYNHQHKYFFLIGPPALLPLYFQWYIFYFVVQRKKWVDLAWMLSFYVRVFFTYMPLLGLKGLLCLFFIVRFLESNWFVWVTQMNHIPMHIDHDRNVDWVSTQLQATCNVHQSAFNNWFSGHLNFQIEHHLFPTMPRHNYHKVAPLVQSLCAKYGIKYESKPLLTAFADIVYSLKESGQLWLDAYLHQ

One experiment addresses T1, delta-5-desaturase (Rattus norvegicus, UniProt Q920R3).
T1 construct: the microsomal fraction of a rat river (10 μl), which had been diluted to 3 mg/ml; from tissue; host or cells: rat liver microsomal fraction
As to the kind of experiment: Inhibitory activity on delta-5-desaturase (rat liver microsomal fraction, 14C-eicosatrienoic acid, TLC). Format: biochemical. The settings on record: test compound at 10 μM, room temperature, 120 minutes. As for the experimental part: An inhibitory activity of a test compound on delta-5-desaturase was measured according to the method described herein below. To a DMSO solution of the test compound which had been previously prepared, secondary dilution was carried out by using a buffer (300 mM NaH2PO4 [pH 7.4], 450 mM KCl, 30 mM NaF, 9 mM MgCl2, 4.5 mM glutathione [reduced form], 0.3% BSA [fatty acid free, SIGMA]). This diluent compound (10 μl) was added in a 96-well deep well block made of polypropylene, and then the microsomal fraction of a rat river (10 μl), which had been diluted to 3 mg/ml by using a microsome buffer (10 mM Tris-HCl [pH 7.4], 1 mM EDTA, and 250 mM sucrose), was added thereto. The enzyme reaction was initiated by adding 10 μl of 9 mM NADH, 9 mM ATP, 0.9 mM CoA and 10 μCi/ml (8E,11E,14E)-(1-^14C)eicosa-8,11,14-trienoic acid (PerkinElmer Inc.). The enzyme reaction was carried out at room temperature for 120 minutes, and then terminated by addition of 2.5 M NaOH (10 μl). Upon the completion of the reaction, the plate was covered with plate seal and incubated overnight in a dry heater of which temperature was set at 55° C. for saponification. Based on Bligh & Dyer method which had been described in a known document, Canadian Journal of Biochemistry and Physiology (Can. J. Biochem. Physiol.), Vol. 37, page 911, 1959), the solvent extraction of fatty acid was carried out by adding 200 μl of formic acid:methanol:chloroform (1:6:3), keeping the mixture as a single layer for a while, stirring the mixture to a sufficient level, and adding 120 μl of pure water to separate the mixture into two layers. 10 μl of the bottom chloroform layer was spotted on a reverse phase TLC plate (RP-18, 1154230001, Merck Japan, Ltd.) and then developed with acetonitrile:pure water:acetic acid (95:4.5:0.5). The TLC plate obtained after drying was transferred to an Imaging Plate (Fuji Photo Film Co., Ltd.) for more than 5 hours. Detection was carried out by using BAS-5000 (Fuji Photo Film Co., Ltd.). Numerization of thus-obtained image was carried out by using Multi Gauge Ver 2.3 (Fuji Photo Film Co., Ltd.) and an inhibitory ratio (%) of the test compound at 10 μM on delta-5-desaturase was obtained.
(In general: Liver microsomes are a subcellular fraction often used to study metabolism.)
By inhibition is commonly meant the change of the read-out against control, counted positive when it falls. `CCCCOc1ccc(-n2c(SCCCC(=O)NCCC#N)nc3cc[nH]c3c2=O)cc1` [Example 91, 4-{[3-(4-Butoxyphenyl)-4-oxo-4,5-dihydro-3H-pyrrolo[3,2-d]pyrimidin-2-yl]sulfanyl}-N-(2-cyanoethyl)butanamide]: the inhibition at 10 µM came out at 100%. Turning to `CCOc1nc2[nH]ccc2c(=O)n1-c1ccc(OCC(F)(F)F)cc1` [Example 209, 2-Ethoxy-3-[4-(2,2,2-trifluoroethoxy)phenyl]-3,7-dihydro-4H-pyrrolo[2,3-d]pyrimidin-4-one], the inhibition at 10 µM was found to be 99%. As for `O=c1c2cc[nH]c2nc(SC2CC2)n1-c1ccc(OCC(F)(F)F)cc1` [Example 256, 2-(Cyclopropylsulfanyl)-3-[4-(2,2,2-trifluoroethoxy)phenyl]-3,7-dihydro-4H-pyrrolo[2,3-d]pyrimidin-4-one], the inhibition at 10 µM worked out at 104%. Consider `CC(C)(O)CCSc1nc2cc[nH]c2c(=O)n1-c1ccc(OCC(F)(F)F)cc1` [Example 131, 2-[(3-Hydroxy-3-methylbutyl)sulfanyl]-3-[4-(2,2,2-trifluoroethoxy)phenyl]-3,5-dihydro-4H-pyrrolo[3,2-d]pyrimidin-4-one], for which the inhibition at 10 µM was 108%. As to `CC(C)(O)CNC(=O)CCCSc1nc2cc[nH]c2c(=O)n1-c1ccc(OCC(F)(F)F)cc1` [Example 99, N-(2-hydroxy-2-methylpropyl)-4-({4-oxo-3-[4-(2,2,2-trifluoroethoxy)phenyl]-4,5-dihydro-3H-pyrrolo[3,2-d]pyrimidin-2-yl}sulfanyl)butanamide], the inhibition at 10 µM worked out at 94%. The same measure, in the same setting: to `N#CCCNC(=O)CSc1nc2c(c(=O)n1-c1ccc(OCC(F)(F)F)cc1)CC(=O)N2` [Example 328, N-(2-cyanoethyl)-2-({4,6-dioxo-3-[4-(2,2,2-trifluoroethoxy)phenyl]-4,5,6,7-tetrahydro-3H-pyrrolo[2,3-d]pyrimidin-2-yl}sulfanyl)acetamide] belongs 97%; to `CSc1nc2c(c(=O)n1-c1ccc(OCC(F)(F)C(F)(F)F)cc1)CC(=O)N2` [Example 303, 2-(Methylsulfanyl)-3-[4-(2,2,3,3,3-pentafluoropropoxy)phenyl]-5,7-dihydro-3H-pyrrolo[2,3-d]pyrimidine-4,6-dione], 98%; to `CC(C)(C)COc1ccc(-n2c(SCCCC(=O)NCCC#N)nc3cc[nH]c3c2=O)cc1` [Example 115, N-(2-cyanoethyl)-4-({3-[4-(2,2-dimethylpropoxy)phenyl]-4-oxo-4,5-dihydro-3H-pyrrolo[3,2-d]pyrimidin-2-yl}sulfanyl)butanamide], 103%. The same measure, in the same setting: to `CCOc1ccc(-n2c(SCC(=O)NCCC#N)nc3[nH]ccc3c2=O)cc1` [Example 173, N-(2-cyanoethyl)-2-{[3-(4-ethoxyphenyl)-4-oxo-4,7-dihydro-3H-pyrrolo[2,3-d]pyrimidin-2-yl]sulfanyl}acetamide] belongs 97%; to `CC(CCSc1nc2cc[nH]c2c(=O)n1-c1ccc(OCC(F)(F)F)cc1)C(=O)NCCC#N` (stereo not drawn) [Example 85, N-(2-cyanoethyl)-2-methyl-4-({4-oxo-3-[4-(2,2,2-trifluoroethoxy)phenyl]-4,5-dihydro-3H-pyrrolo[3,2-d]pyrimidin-2-yl)sulfanyl)butanamide], 99%; to `CS(=O)(=O)CCCSc1nc2[nH]ccc2c(=O)n1-c1ccc(OCC2CC2)cc1` [Example 215, 3-[4-(Cyclopropylmethoxy)phenyl]-2-{[3-(methylsulfonyl)propyl]sulfanyl}-3,7-dihydro-4H-pyrrolo[2,3-d]pyrimidin-4-one], 102%. As to `N#CCSc1nc2c(c(=O)n1-c1ccc(OCC(F)(F)F)cc1)CC(=O)N2` [Example 312, ({4,6-Dioxo-3-[4-(2,2,2-trifluoroethoxy)phenyl]-4,5,6,7-tetrahydro-3H-pyrrolo[2,3-d]pyrimidin-2-yl}sulfanyl)acetonitrile], the inhibition at 10 µM was 97%. Same read-out and setting: under `N#CCCNC(=O)CCCSc1nc2c(C3CC3)c[nH]c2c(=O)n1-c1ccc(OCC(F)(F)F)cc1` [Example 170, N-(2-cyanoethyl)-4-({7-cyclopropyl-4-oxo-3-[4-(2,2,2-trifluoroethoxy)phenyl]-4,5-dihydro-3H-pyrrolo[3,2-d]pyrimidin-2-yl}sulfanyl)butanamide] stands 101%.

In the case of `O=c1c2[nH]ccc2nc(SCCCO)n1-c1ccc(OCC(F)(F)F)cc1` [Example 116, 2-[(3-Hydroxypropyl)sulfanyl]-3-[4-(2,2,2-trifluoroethoxy)phenyl]-3,5-dihydro-4H-pyrrolo[3,2-d]pyrimidin-4-one], the inhibition at 10 µM is 101%. On the same count and under the same terms, under `COCCOCCCSc1nc2c(c(=O)n1-c1ccc(OCC(F)(F)F)cc1)CC(=O)N2` [Example 299, 2-{[3-(2-Methoxyethoxy)propyl]sulfanyl}-3-[4-(2,2,2-trifluoroethoxy)phenyl]-5,7-dihydro-3H-pyrrolo[2,3-d]pyrimidine-4,6-dione] stands 100%; under `N#CCCCCCSc1nc2cc[nH]c2c(=O)n1-c1ccc(OCC(F)(F)F)cc1` [Example 88, 6-({4-Oxo-3-[4-(2,2,2-trifluoroethoxy)phenyl]-4,5-dihydro-3H-pyrrolo[3,2-d]pyrimidin-2-yl}sulfanyl)hexanenitrile], 100%; under `O=c1c2[nH]ccc2nc(SCCCS(=O)(=O)NCC(F)(F)F)n1-c1ccc(OCC(F)(F)F)cc1` [Example 107, 3-({4-Oxo-3-[4-(2,2,2-trifluoroethoxy)phenyl]-4,5-dihydro-3H-pyrrolo[3,2-d]pyrimidin-2-yl}sulfanyl)-N-(2,2,2-trifluoroethyl)propane-1-sulfonamide], 100%.

With `CCSc1nc2c(c(=O)n1-c1ccc(OCC(F)F)cc1)CC(=O)N2` [Example 270, 3-[4-(2,2-Difluoroethoxy)phenyl]-2-(ethylsulfanyl)-5,7-dihydro-3H-pyrrolo[2,3-d]pyrimidine-4,6-dione], the inhibition at 10 µM was determined as 99%. For the compound `CCn1ccc2c(=O)n(-c3ccc(OCC(F)(F)F)cc3)c(SCCCC(=O)NCCC#N)nc21` [Example 193], the inhibition at 10 µM was 100%.

With `O=C1Cc2c(nc(SCC3CC3)n(-c3ccc(OCC(F)(F)C(F)(F)F)cc3)c2=O)N1` [Example 323, 2-[(Cyclopropylmethyl)sulfanyl]-3-[4-(2,2,3,3,3-pentafluoropropoxy)phenyl]-5,7-dihydro-3H-pyrrolo[2,3-d]pyrimidine-4,6-dione], the inhibition at 10 µM stood at 102%.

With `CCSc1nc2cc[nH]c2c(=O)n1-c1ccc(OCC(F)(F)F)cc1` [Example 104, 2-(Ethylsulfanyl)-3-[4-(2,2,2-trifluoroethoxy)phenyl]-3,5-dihydro-4H-pyrrolo[3,2-d]pyrimidin-4-one], the inhibition at 10 µM turned out to be 100%. Still for that read-out and setting: to `O=C1Cc2c(nc(OC(CF)CF)n(-c3ccc(OCC(F)(F)F)cc3)c2=O)N1` [Example 338, 2-[2-Fluoro-1-(fluoromethyl)ethoxy]-3-[4-(2,2,2-trifluoroethoxy)phenyl]-5,7-dihydro-3H-pyrrolo[2,3-d]pyrimidine-4,6-dione] belongs 100%; to `CS(=O)(=O)CCCSc1nc2cc[nH]c2c(=O)n1-c1ccc(OCC(F)(F)F)cc1` [Example 80, 2-{[3-(Methylsulfonyl)propyl]sulfanyl}-3-[4-(2,2,2-trifluoroethoxy)phenyl]-3,5-dihydro-4H-pyrrolo[3,2-d]pyrimidin-4-one], 98%.

Consider `CC1(COc2ccc(-n3c(SCCCC(=O)NCCC#N)nc4cc[nH]c4c3=O)cc2)CC1` [Example 93, N-(2-cyanoethyl)-4-[(3-{4-[(1-methylcyclopropyl)methoxy]phenyl}-4-oxo-4,5-dihydro-3H-pyrrolo[3,2-d]pyrimidin-2-yl)sulfanyl]butanamide], for which the inhibition at 10 µM stood at 101%. Same read-out and setting: to `CCSc1nc2[nH]ccc2c(=O)n1-c1ccc(OCC(F)(F)C(F)(F)F)cc1` [Example 249, 2-(Ethylsulfanyl)-3-[4-(2,2,3,3,3-pentafluoropropoxy)phenyl]-3,7-dihydro-4H-pyrrolo[2,3-d]pyrimidin-4-one] belongs 100%; to `CC(C)Sc1nc2[nH]ccc2c(=O)n1-c1ccc(OCC(F)(F)F)cc1` [Example 251, 2-[(1-Methylethyl)sulfanyl]-3-[4-(2,2,2-trifluoroethoxy)phenyl]-3,7-dihydro-4H-pyrrolo[2,3-d]pyrimidin-4-one], 97%.

Staying with this experiment, now noted: test compound at 10 μM, room temperature, 120 minutes, 10 µM.
In the case of `O=c1c2cc[nH]c2nc(OCC2CC2)n1-c1ccc(OCC(F)(F)F)cc1` [Example 289, 2-(Cyclopropylmethoxy)-3-[4-(2,2,2-trifluoroethoxy)phenyl]-3,7-dihydro-4H-pyrrolo[2,3-d]pyrimidin-4-one], the “Inhibitory activity at 10 μM (%)” value was determined as 101%.
